In PubChem BioAssay AID1963971 (Molecular Pharmacology Branch, DTP, NCI, 2024):

Tested on: 953936-095-R-J2-PDC spheroids with HUVEC/MSC, viability
Assay: Anticancer human tumor 953936-095-R-J2-PDC patient-derived cervical squamous cell carcinoma cell line growth inhibition [PI3K]
Conditions: for IC50: curve of first compound; for viability, T/C: stronger effect = lower value
How it was run: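 High-throughput combination screen: PI3K inhibitors crossed with targeted small molecules on complex spheroids of tumor cells, HUVEC and MSCs at 37 degrees C, 5% CO2. Top concentration was at or near clinical Cmax (otherwise 10 microM), with half-log decrements.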

[1] = second compound 0.00316 µM, first compound 0.0316 µM
[2] = second compound 0.00316 µM, first compound 0.1 µM
[3] = second compound 0.00316 µM, first compound 0.316 µM
[4] = second compound 0.00316 µM, first compound 1 µM
[5] = second compound 0.01 µM, first compound 0.0316 µM
[6] = second compound 0.01 µM, first compound 0.1 µM
[7] = second compound 0.01 µM, first compound 0.316 µM
[8] = second compound 0.01 µM, first compound 1 µM
[9] = second compound 0.0316 µM, first compound 0.0316 µM
[10] = second compound 0.0316 µM, first compound 0.1 µM
[11] = second compound 0.0316 µM, first compound 0.316 µM
[12] = second compound 0.0316 µM, first compound 1 µM
[13] = second compound 0.1 µM, first compound 0.0316 µM
[14] = second compound 0.1 µM, first compound 0.1 µM
[15] = second compound 0.1 µM, first compound 0.316 µM
[16] = second compound 0.1 µM, first compound 1 µM
[17] = second compound 0.316 µM, first compound 0.0316 µM
[18] = second compound 0.316 µM, first compound 0.1 µM
[19] = second compound 0.316 µM, first compound 0.316 µM
[20] = second compound 0.316 µM, first compound 1 µM
[21] = second compound 1 µM, first compound 0.0316 µM
[22] = second compound 1 µM, first compound 0.1 µM
[23] = second compound 1 µM, first compound 0.316 µM
[24] = second compound 1 µM, first compound 1 µM
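Further: spheroids exposed to compounds for seven days before read-out.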

`CC(C)NCC(C(=O)N1CCN(c2ncnc3c2C(C)CC3O)CC1)c1ccc(Cl)cc1` (centres undefined) + COc1c(OCCCN2CCOCC2)ccc2c3n(c(=NC(=O)c4cnc(N)nc4)nc12)CCN3 showed an IC50 (second compound 0.00316 µM) of 793 nM, an IC50 (second compound 0.01 µM) of 537 nM and an IC50 (second compound 0.0316 µM) of less than 31.6 nM. For the same compound, the IC50 (second compound 0.1 µM) was less than 31.6 nM, the IC50 (second compound 0.316 µM) was less than 31.6 nM and the IC50 (second compound 1 µM) was less than 31.6 nM. The viability, T/C [1] was 80.9%, the viability, T/C [2] was 85.2% and the viability, T/C [3] was 66.5%. It also gave a viability, T/C [4] of 46.5%, a viability, T/C (second compound 0.00316 µM, first compound 3.16 µM) of 21% and a viability, T/C (second compound 0.00316 µM, first compound 10 µM) of 11.6%. For the same compound, the viability, T/C [5] was 68.9%, the viability, T/C [6] was 69.2% and the viability, T/C [7] was 62.2%. It also gave a viability, T/C [8] of 35.6%, a viability, T/C (second compound 0.01 µM, first compound 3.16 µM) of 16.6% and a viability, T/C (second compound 0.01 µM, first compound 10 µM) of 9.89%. The viability, T/C [9] was 44.4%, the viability, T/C [10] was 38.5% and the viability, T/C [11] was 35.7%. For the same compound, the viability, T/C [12] was 24%, the viability, T/C (second compound 0.0316 µM, first compound 3.16 µM) was 12.2% and the viability, T/C (second compound 0.0316 µM, first compound 10 µM) was 6.65%. For the same compound, the viability, T/C [13] was 18.9%, the viability, T/C [14] was 16.4% and the viability, T/C [15] was 16.3%. For the same compound, the viability, T/C [16] was 12.4%, the viability, T/C (second compound 0.1 µM, first compound 3.16 µM) was 6.76% and the viability, T/C (second compound 0.1 µM, first compound 10 µM) was 3.98%. It also gave a viability, T/C [17] of 6.59%, a viability, T/C [18] of 6.54% and a viability, T/C [19] of 5.22%. The viability, T/C [20] was 4.04%, the viability, T/C (second compound 0.316 µM, first compound 3.16 µM) was 2.93% and the viability, T/C (second compound 0.316 µM, first compound 10 µM) was 1.71%. It also gave a viability, T/C [21] of 1.44%, a viability, T/C [22] of 2.11% and a viability, T/C [23] of 1.2%. It also gave a viability, T/C [24] of 1.24%, a viability, T/C (second compound 1 µM, first compound 3.16 µM) of 0.83% and a viability, T/C (second compound 1 µM, first compound 10 µM) of 0.81%.

`CCN1CCN(Cc2ccc(Nc3ncc(F)c(-c4cc(F)c5nc(C)n(C(C)C)c5c4)n3)nc2)CC1` + COc1c(OCCCN2CCOCC2)ccc2c3n(c(=NC(=O)c4cnc(N)nc4)nc12)CCN3 gave an IC50 (second compound 0.00316 µM) greater than 1000 nM, an IC50 (second compound 0.01 µM) greater than 1000 nM and an IC50 (second compound 0.0316 µM) of less than 3.16 nM. It also gave an IC50 (second compound 0.1 µM) of less than 3.16 nM, an IC50 (second compound 0.316 µM) of less than 3.16 nM and an IC50 (second compound 1 µM) of less than 3.16 nM. It also gave a viability, T/C (second compound 0.00316 µM, first compound 0.00316 µM) of 92.5%, a viability, T/C (second compound 0.00316 µM, first compound 0.01 µM) of 91.2% and a viability, T/C [1] of 87%. The viability, T/C [2] was 91.7%, the viability, T/C [3] was 76.5% and the viability, T/C [4] was 67.7%. The viability, T/C (second compound 0.01 µM, first compound 0.00316 µM) was 70.8%, the viability, T/C (second compound 0.01 µM, first compound 0.01 µM) was 75% and the viability, T/C [5] was 69.7%. For the same compound, the viability, T/C [6] was 60.7%, the viability, T/C [7] was 56% and the viability, T/C [8] was 55.5%. The viability, T/C (second compound 0.0316 µM, first compound 0.00316 µM) was 40.5%, the viability, T/C (second compound 0.0316 µM, first compound 0.01 µM) was 40.9% and the viability, T/C [9] was 37.7%. It also gave a viability, T/C [10] of 33.1%, a viability, T/C [11] of 35.9% and a viability, T/C [12] of 31.7%. It also gave a viability, T/C (second compound 0.1 µM, first compound 0.00316 µM) of 20%, a viability, T/C (second compound 0.1 µM, first compound 0.01 µM) of 17.5% and a viability, T/C [13] of 15.2%. For the same compound, the viability, T/C [14] was 13.8%, the viability, T/C [15] was 14.2% and the viability, T/C [16] was 15.6%. It also gave a viability, T/C (second compound 0.316 µM, first compound 0.00316 µM) of 6%, a viability, T/C (second compound 0.316 µM, first compound 0.01 µM) of 5.63% and a viability, T/C [17] of 4.91%. The viability, T/C [18] was 5.77%, the viability, T/C [19] was 4.23% and the viability, T/C [20] was 6.22%. For the same compound, the viability, T/C (second compound 1 µM, first compound 0.00316 µM) was 1.99%, the viability, T/C (second compound 1 µM, first compound 0.01 µM) was 1.61% and the viability, T/C [21] was 1.43%. For the same compound, the viability, T/C [22] was 1.48%, the viability, T/C [23] was 1.73% and the viability, T/C [24] was 2.54%.
